Data taken from EP2380575B1, “Eslicarbazepine acetate and use” (Bial-Portela & CA, S.A., priority 2005, dated 2006).
Where two headings read alike, the source gives them in different places. One block for each compound: values may come before it.

Tests used:
[1] = Study in epileptic patients: trough plasma concentrations of BIA 2-005; format: in vivo, humans
Text: This clinical trial was a double-blind, randomized, placebo-controlled study performed by 20 centers in Croatia, Czech Republic, Germany, Lithuania and Poland. The stated objectives of the study were to assess the efficacy and safety of BIA 2-093 as adjunctive therapy in patients with refractory partial epilepsy. In total, 143 patients aged 18-65 years with at least 4 partial-onset seizures per month in spite of treatment with 1 or 2 antiepileptic drugs (AEDs) (e.g., phenytoin, valproate, primidone, phenobarbital, lamotrigine, gabapentin, topiramate or clonazepam) were randomly assigned to one of three groups: treatment with placebo (n=47), BIA 2-093 once-daily (n=50), or BIA 2-093 twice-daily (n=46), during 12 weeks (plus 1 week of tapering off). For the first 4 weeks, daily dose was 400 mg. Then, daily doses were increased to 800 mg (weeks 5-8), and finally to 1200 mg (weeks 9-12). […] See, e.g., Almeida I and Almeida II.
Plasma/serum samples for the "trough" (pre-dose) levels of BIA 2-005 and concomitant AEDs were collected at all visits but V5 (post-study visit). The objective was to characterize the influence of eslicarbazepine acetate on the pharmacokinetic behavior of the concomitant AEDs (e.g., phenytoin, valproate, primidone, phenobarbital, lamotrigine, gabapentin, topiramate, and clonazepam). […] Table 1: Trough plasma concentrations of BIA 2-005 following oral administration of eslicarbazepine acetate once-daily (o.d.) and twice-daily (b.i.d)

[2] = after oral administration; below LOQ of the assay; cited from earlier work
[3] = system: patients with refractory partial epilepsy; assay: Study in epileptic patients: efficacy as adjunctive therapy; format: in vivo, humans; settings: for reduction in the number of seizures: versus baseline; for proportion of responders (50% or greater reduction in seizure frequency vs baseline): ITT
Protocol: The effects of eslicarbazepine acetate in humans was studied in at least the following clinical studies. In the first study, a placebo-controlled therapeutic exploratory study, once-daily and twice-daily dosing was compared in epileptic patients refractory to standard anti-epileptic drug therapy. In the second study, healthy subjects received either a once-daily (o.d.) oral dose of 900 mg of eslicarbazepine acetate or a twice-daily (b.i.d.) dose of 450 mg of eslicarbazepine acetate. In the third study, healthy subjects received single oral doses of eslicarbazepine acetate ranging from 20 mg to 2400 mg, and repeated once-daily (o.d.) oral doses ranging from 400 mg to 2400 mg of eslicarbazepine acetate. This clinical trial was a double-blind, randomized, placebo-controlled study performed by 20 centers in Croatia, Czech Republic, Germany, Lithuania and Poland. The stated objectives of the study were to assess the efficacy and safety of BIA 2-093 as adjunctive therapy in patients with refractory partial epilepsy. […] For the first 4 weeks, daily dose was 400 mg. Then, daily doses were increased to 800 mg (weeks 5-8), and finally to 1200 mg (weeks 9-12). […] See, […] and Almeida II. The proportion of patients with a 50% or greater reduction in seizure frequency in the treatment period compared to the baseline period in the intention-to-treat (ITT) population (n=143) was the primary efficacy endpoint. […] The proportion of responders in the once-daily group (54%) was also higher than in the twice-daily (41%) group. […] At this dose level, no significant difference was found between the twice-daily and the placebo groups. Secondary endpoints include the reduction in total seizure frequency, proportion of seizure-free patients, distribution of responders, comparison of once and twice daily regimens, and investigator's and patient's global evaluation.

[4] = Metabolic profile in liver microsomes, chiral analysis; format: in vitro ADME; settings: liver microsomes from rats, dogs, monkeys and humans, not the R(-) form
[5] = Trial B: pharmacokinetics following single and repeated doses in healthy young male subjects; format: in vivo, humans; settings: in a minor extent to R-licarbazepine
Protocol: The study integrated the results of three double-blind, randomized, placebo-controlled trials. To measure the pharmacokinetics of eslicarbazepine acetate following single doses, oral single doses of eslicarbazepine acetate ranging from 20 mg to 2400 mg were administered to healthy young male subjects (6 subjects per dose). The pharmacokinetics of eslicarbazepine acetate following repeated doses were measured by administering repeated oral doses ranging from 400 mg to 2400 mg of eslicarbazepine acetate to healthy young male subjects (6 subjects per dose) over a period of 8 days. Analytical test methods and experimental procedures were similar to those described for Trial A above.

[6] = not given; remark: listed apart in the source
[7] = system: voltage-gated sodium channel (VGSC); settings: compared with carbamazepine; cited from earlier work

extent of systemic exposure versus dose (oral eslicarbazepine acetate, healthy subjects): approximately dose-proportional
total amount recovered in the urine (within 12 hours post-dose): about 20%
total amount recovered in the urine (within 24 hours post-dose): ~40%
Trough plasma concentration, Mean (sd) ([1]; 400 mg/day eslicarbazepine acetate, b.i.d. group): 4.9(2.3) µg/mL
Trough plasma concentration, Mean (sd) ([1]; 400 mg/day eslicarbazepine acetate, o.d. group): 4.0 (3.2) µg/mL
Trough plasma concentration, Mean (sd) ([1]; 800 mg/day eslicarbazepine acetate, b.i.d. group): 13.5 (9.6) µg/mL
Trough plasma concentration, Mean (sd) ([1]; 800 mg/day eslicarbazepine acetate, o.d. group): 10.7(7.0) µg/mL
Trough plasma concentration, Mean (sd) ([1]; 1200 mg/day eslicarbazepine acetate, b.i.d. group): 15.5 (8.8) µg/mL
Trough plasma concentration, Mean (sd) ([1]; 1200 mg/day eslicarbazepine acetate, o.d. group): 14.6 (8.8) µg/mL
Compound: NC(=O)N1c2ccccc2CC(O)c2ccccc21 (stereo not drawn) [BIA 2-005]

metabolite formed in liver microsomes [4]: S(+) enantiomer of licarbazepine
plasma concentrations of parent drug ([6]; limit of quantification 10 ng/mL): below the limit of quantification
Compound: CC(=O)O[C@H]1Cc2ccccc2N(C(N)=O)c2ccccc21 [eslicarbazepine acetate]
plasma concentrations of the parent drug [2]: < 10 ng/mL
reduction in the number of seizures ([3]; 400 mg once-daily): 38.9%
reduction in the number of seizures ([3]; 400 mg twice-daily): 20.2%
reduction in the number of seizures ([3]; 800 mg once-daily): 55.8%
reduction in the number of seizures ([3]; 800 mg twice-daily): 38.1%
proportion of responders (50% or greater reduction in seizure frequency vs baseline) ([3]; 800 mg/day (weeks 5-8), once-daily group): 58%
proportion of responders (50% or greater reduction in seizure frequency vs baseline) ([3]; 800 mg/day (weeks 5-8), twice-daily group): 33%
reduction in the number of seizures ([3]; 1200 mg once-daily): 59.5%
reduction in the number of seizures ([3]; 1200 mg twice-daily): 47.5%
proportion of responders (50% or greater reduction in seizure frequency vs baseline) ([3]; 1200 mg/day (weeks 9-12), once-daily group): 54%
proportion of responders (50% or greater reduction in seizure frequency vs baseline) ([3]; 1200 mg/day (weeks 9-12), twice-daily group): 41%
patients seizure-free ([3]; end of the 12-week treatment phase, once-daily group): 27.9%
assessment of efficacy by the investigator (CGI - Clinical Global Impression) and of acceptability by patient ([3]; once-daily group compared with the other groups): rated best
metabolism of eslicarbazepine acetate [5]: extensively metabolized to eslicarbazepine
metabolism of eslicarbazepine acetate ([6]; in a minor extent to R-licarbazepine): extensively metabolized to eslicarbazepine
affinity for the resting state of the channel, lower than that of carbamazepine [7]: about 3 fold
